Experimental findings from ChEMBL document CHEMBL5375981, “Enhanced Tumor Targeting and Penetration of Proteolysis-Targeting Chimeras through iRGD Peptide Conjugation: A Strategy for Precise Protein Degradation in Breast Cancer” (J Med Chem, 2023) are described below.

SMILES strings stand for the structures. The source made the active and inactive calls. The calls are words filed in the database; no cut-off is given here.

Data set [1] addresses Bromodomain-containing protein 4 (Homo sapiens) (UniProt O60885). The experiment in a line: Induction of BRD4 degradation in human MDA-MB-231 cells harboring high integrin alphaVbeta3 expression assessed as reduction in BRD4 levels at 500 nM pretreated with integrin receptor antagonist cilengitide for 2 hrs followed by compound addition and measured after 12 hrs by immunofluorescence staining based confocal microscopic analysis. It counts as cell-based.

The next data set deals with MDA-MB-231. The experiment in a line: Antitumor activity against human MDA-MB-231 cells xenografted in BALB/C nude mouse assessed as tumor growth inhibition at 5 uM, iv administered every other day and measured after 21 days by vernier caliper method relative to control. It counts as functional. Particulars: MDA-MB-231, 504 h, time 21 day, read-out: TGI. A general note: Xenograft models place foreign cells or tissue in a host animal.

Data set [2] is described as follows: Toxicity in BALB/C mouse xenografted with human MDA-MB-231 cells assessed as effect on liver weight at 5 to 8 uM, iv administered every other day for 21 days. The following applies: in vivo, 504 h, dose 5-8 µM, time 21 day. It counts as organism-based.
Data set [3] is described as follows: Toxicity in BALB/C mouse xenografted with human MDA-MB-231 cells assessed as effect on lung weight at 5 to 8 uM, iv administered every other day for 21 days. Particulars: in vivo, 504 h, dose 5-8 µM, time 21 day. It counts as organism-based.
Data set [4] in a line: Antitumor activity against patient-derived Breast cancer organoid assessed as inhibition of cell growth incubated for approximately 3 to 5 days by CCK-8 assay. It counts as functional, tissue-based. The following applies: Homo sapiens. In general terms: Tetrazolium dyes change colour on reduction, which living cells bring about.
Data set [5] addresses Bromodomain-containing protein 4 (Homo sapiens) (UniProt O60885). Kind of data set: Induction of BRD4 degradation in human MDA-MB-231 cells harboring high integrin alphaVbeta3 expression at 300 nM incubated for 16 to 20 hrs by Western blot analysis. Particulars: time 16-20 hrs. Format: cell-based. In general terms: In western blotting, separated proteins are transferred to a membrane and probed.

A short description of data set [6]: Toxicity in BALB/C mouse xenografted with human MDA-MB-231 cells assessed as heart damage at 5 to 8 uM, iv administered every other day for 21 days and measured 37 days post treatment by H and E staining based assay. The following applies: in vivo, 1392 h, dose 5-8 µM, time 58 day. Format: organism-based.
Another data set concerns Mus musculus. Kind of data set: In vivo induction of BRD4 degradation in BALB/C mouse xenografted with human MDA-MB-231 cells assessed as reduction in BRD4 level by measuring reduction in green fluorescence at 5 to 8 uM, iv administered every other day and measured after 21 days by immunofluorescence analysis. It counts as functional, organism-based. Particulars: dose 5-8 µM, time 21.0 day.

The nature of data set [7]: Toxicity in BALB/C mouse xenografted with human MDA-MB-231 cells assessed as effect on heart weight at 5 to 8 uM, iv administered every other day for 21 days. It counts as organism-based. Particulars: in vivo, 504 h, dose 5-8 µM, time 21 day.
Data set [8] is described as follows: Toxicity in BALB/C mouse xenografted with human MDA-MB-231 cells assessed as adverse reactions at 5 to 8 uM, iv administered for 21 days and measured every 3 days. It counts as organism-based. The following applies: in vivo, 504 h, dose 5-8 µM, time 21 day.
The species named for another data set is Homo sapiens. The experiment in a line: Antitumor activity against patient-derived Breast cancer organoid assessed as inhibition of cell growth at 0.5 to 1 uM incubated for 3 days by CCK-8 assay. Particulars: dose 0.5-1 µM, time 3.0 day. It counts as functional, tissue-based.
Data set [9] is described as follows: Solubility in distilled water measured for 30 mins by ultraviolet spectrophotometry analysis. It counts as physicochemical.

The term IC50 denotes the midpoint of a concentration-inhibition curve. Usually solubility stands for the concentration that dissolves in the medium under given conditions. The low end stands for little dissolved substance, the high end for much dissolved substance. In the case of `Cc1ncsc1-c1ccc([C@H](C)NC(=O)[C@@H]2C[C@@H](OC(=O)OCCSSCCOC(=O)CCC(=O)NCCCC[C@@H]3NC(=O)[C@H](CC(=O)O)NC(=O)CNC(=O)[C@H](CCCNC(=N)N)NC(=O)[C@@H](N)CSSC[C@@H](C(=O)O)NC(=O)[C@H](CC(=O)O)NC(=O)[C@@H]4CCCN4C(=O)CNC3=O)CN2C(=O)[C@@H](NC(=O)COCCOCCOCCNC(=O)C[C@@H]2N=C(c3ccc(Cl)cc3)c3c(sc(C)c3C)-n3c(C)nnc32)C(C)(C)C)cc1`, in [1], the result was inactive. The inhibition in vivo at 5 µM in the data set on MDA-MB-231 is 62.3%. For the same compound, the Activity entry in [2], in data set [3], in [6], in [7] and in data set [8] was “Non-Toxic” in each case. Besides, in [4], the half-inhibitory concentration (IC50) was determined as 0.95 µM. Moreover, the result (in [5]; in the data set with Mus musculus; in the data set listed under Homo sapiens) was Active. The same compound yielded a solubility at 0.5 h in [9] of more than 10 mM.
